Tested on: B16F10 cells
Assay: Melanogenesis inhibitory efficiency test (melanin amount in α-MSH-stimulated B16F10 cells)
Assay type: cell-based
Settings: for Melanin amount (%) / Melanogenesis inhibitory efficiency (symbol): 10 nM α-MSH; for Melanin amount (%) / Melanogenesis inhibitory efficiency / Melanogenesis inhibitory efficiency (symbol): 48 hours; for Melanin amount (%): absorbance at 405 nm, ingredient concentrations (wt %) per Table 1; for Melanogenesis inhibitory efficiency: (Melanin amount upon no treatment − upon treatment)/(upon no treatment) × 100, 10 nM α-MSH; for melanogenesis inhibitory effect (in words): urea or hydroxyethyl urea used alone; for Melanogenesis inhibitory efficiency (symbol): symbol for no effect
Procedure: In order to confirm melanogenesis inhibitory efficacy caused by sodium pyruvate, first, B16F10 cells were dispensed into a 6-well plate at 1×10^5 cells/well and cultured in a DMEM medium containing 10% FBS and 1% penicillin/streptomycin under conditions of 37° C. and 5% CO2 for 24 hours. […] The resulting cells were harvested, added to 100 μl of a lysis buffer (1N NaOH, 10% DMSO), and then allowed to react at 90° C. for 20 minutes, and melanin amounts were measured at 405 nm (EPOCH, Biotek). The melanin amount measurement results are as follows.

Structure (SMILES)	Melanin amount (%)	Melanogenesis inhibitory efficiency [%]	melanogenesis inhibitory effect (in words)	Melanogenesis inhibitory efficiency (symbol)
CC(=O)C(=O)[O-].[Na+] [Comparative Example 11, sodium pyruvate]	64	36	–	–
NC(=O)NCCO [compound 2, hydroxyethyl urea]	–	–	a melanogenesis inhibitory effect was not shown	–
NC(=O)NCCO [compound 3, hydroxyethyl urea]	100	–	–	*** (100 or more has no effect)
NC(N)=O [compound 4, urea]	100	–	a melanogenesis inhibitory effect was not shown	*** (100 or more has no effect)
CC(=O)C(=O)[O-].[Na+] [compound 8, sodium pyruvate]	92	8	–	–
CC(=O)C(=O)[O-].[Na+] [compound 9, sodium pyruvate]	82	18	–	–
CC(=O)C(=O)[O-].[Na+] [compound 10, sodium pyruvate]	77	23	–	–

Reference: patent US12440433B2, “Brightening cosmetic composition comprising sodium pyruvate as active ingredient” (LG HOUSEHOLD & HEALTH CARE LTD., priority 2020, dated 2025)
